Experiment [1] concerns Citrobacter freundii. In words: MIC in vitro of a 1:4 combination of ceftriaxone with a compound of formula I (test D). Conditions: 1:4 combination of ceftriaxone with the compound. It counts as cell-based. The method, then:
D. Determination of the β-lactamase-inhibiting activity by combination of a compound of general formula I with ceftriaxone
The minimum inhibitory concentration in vitro (MIC in μg/ml) of a 1:4 combination of ceftriaxone with a compound of formula I against Citrobacter freundii is measured and compiled in Table 2 hereinafter.

For experiment [2], the target named is T1, β-lactamase (Citrobacter freundii, UniProt P05193).
T1 construct: Various β-lactamases can be isolated from penicillin- or cephalosporin-resistant bacterial strains such as; endogenous in cells; host or cells: Citrobacter freundii 1203 (enzyme purified from the crude cell extract, after ampicillin induction when necessary)
T1 sequence (P05193 21-381): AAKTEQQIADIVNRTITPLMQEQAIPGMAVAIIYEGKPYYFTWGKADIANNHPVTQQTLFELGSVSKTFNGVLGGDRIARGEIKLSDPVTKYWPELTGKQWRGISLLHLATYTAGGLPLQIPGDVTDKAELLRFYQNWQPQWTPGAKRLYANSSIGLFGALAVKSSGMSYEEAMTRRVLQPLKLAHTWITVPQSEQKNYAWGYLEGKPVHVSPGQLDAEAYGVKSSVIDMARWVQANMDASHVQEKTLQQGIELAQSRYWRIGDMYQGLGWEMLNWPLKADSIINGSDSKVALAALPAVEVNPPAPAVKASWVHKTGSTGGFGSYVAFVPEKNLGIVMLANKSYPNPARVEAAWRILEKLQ
As to the kind of experiment: biochemical. Here is the method: A. Isolation of the β-lactamases
Various β-lactamases can be isolated from penicillin- or cephalosporin-resistant bacterial strains such as Klebsiella pneumoniae NCTC 418, Proteus vulgaris 1028, Bacillus licheniformis 749/C, Escherichia coli SN01 and Citrobacter freundii 1203. For this purpose, the corresponding strains are cultivated in Tryptic Soy Broth (Difco) and harvested by centrifugation in the last logarithmic growth phase (when necessary 50-100 mg/l of ampicillin are added to the medium towards the end of the log-phase in order to induce the β-lactamase). The thus-obtained bacterial mass is treated with 20 mM Tris-HCl buffer (pH 7.0); the cells are broken open with a French press while cooling. The mixture is centrifuged (20,000 r/min.) for 20-30 minutes and a clear crude extract is obtained.
B. Determination of the β-lactamase activity
The determination of the activity of the isolated β-lactamases can be carried out according to the method of O'Callaghan, C. H. et al. [Antimicr. Ag. Chemother., 1, 283-288 (1972)] using the chromogenic cephalosporin nitrocefin (87/312 from Glaxo). The requisite test batch contains per ml of water: 50 mM phosphate buffer (pH 7.0), 0.1 mM nitrocefin and sufficient enzyme (β-lactamase) to achieve a ΔA/min. of about 0.1. The cleavage of the substrate, which is accompanied by a change in colour, is effected at 37° C. and is followed quantitatively at 482 nm using a spectral photometer.
C. Determination of the β-lactamase-inhibiting activity of the compounds of general formula I
The above-described cleavage of the chromogenic substrate by β-lactamases (test B.) can be inhibited by the addition of compounds of general formula I (inhibitors). […] As a measurement for the affinity of the particular tested inhibitor to the β-lactamase, which is a measurement of the strength of the inhibitor, there serves that concentration which inhibits by 50% (IC 50 in nM) the cleavage of the substrate (nitrocefin) effected under the above test conditions (test B) in the absence of an inhibitor. […] The determination of the IC50 was effected by means of a graph.
(Test organism: Citrobacter freundii)

[3] abbreviates: IC 50 nM, isolated β-lactamase of Citrobacter freundii, substrate nitrocefin 0.1 mM, 15 minutes pre-incubation with inhibitor, 37° C., pH 7.0.
Where [4] appears, read: isolated β-lactamase of Citrobacter freundii, substrate nitrocefin 0.1 mM, 15 minutes pre-incubation with inhibitor, 37° C., pH 7.0, read-out: IC 50 nM.

Where a name gives a salt, the structure may show the parent alone. Read-outs that look alike come from different tables or passages of the source.

By MIC is commonly meant the least concentration at which growth counts as inhibited.

Take `N[C@H](Cc1ccccc1)C(=O)N1CC[C@@H]2[C@H]1C(=O)N2S(=O)(=O)O` [4(f), (1S,5R)-7-Oxo-2-(3-phenyl-D-alanyl)-2,6-diazabicyclo[3.2.0]heptane-6-sulphonic acid]: the “MIC” value in experiment [1] was 4 µg/mL. In experiment [2], this compound registered an IC50 of 280 nM.
Consider `O=C(CNc1ccccc1)N1CC[C@@H]2[C@H]1C(=O)N2S(=O)(=O)[O-].[Na+]` [5(b), (1S,5R)-7-Oxo-2-(N-phenylglycyl)-2,6-diazabicyclo[3.2.0]heptane-6-sulphonic acid sodium salt], for which, in experiment [1], the “MIC” value came to 2 µg/mL. For the same compound, the IC50 in experiment [2] (setting [3]) is 110 nM.
For the compound `Nc1cccc(NCC(=O)N2CC[C@@H]3[C@H]2C(=O)N3S(=O)(=O)O)c1` [5(i), (1S,5R)-2-[N-(m-Aminophenyl)glycyl] -7-oxo-2,6-diazabicyclo[3.2.0]heptane-6-sulphonic acid], the minimum inhibitory concentration (MIC) in experiment [1] was found to be 2 µg/mL. The compound further registered an IC50 in experiment [2] of 115 nM.
For `Cn1nnnc1SCC(=O)N1CC[C@@H]2[C@H]1C(=O)N2S(=O)(=O)[O-].[Na+]` [5(j), (1S,5R)-2-[[(1-Methyl-1H-tetrazol-5-yl)-thio]acetyl]-7-oxo-2,6-diazabicyclo[3.2.0]heptane-6-sulphonic acid sodium salt], the “MIC” value in experiment [1] was 0.5 µg/mL. This compound came in with an IC50 in experiment [2] (setting [3]) of 23 nM.
For `O=C(COn1nnc2ccccc21)N1CC[C@@H]2[C@H]1C(=O)N2S(=O)(=O)[O-].[Na+]` [5(k), (1S,5R)-2-[[1H-Benzotriazol-1-yl)oxylacetyl]-7-oxo-2,6-diazabicyclo[3.2.0]-heptane-6-sulphonic acid sodium salt] the same measures were 2 µg/mL and 73 nM.
For `CC(C)n1nnc(CC(=O)N2CC[C@@H]3[C@H]2C(=O)N3S(=O)(=O)[O-])n1.[Na+]` [5(l), (1S,5R)-2-[(2-Isopropyl-2H-tetrazol-5-yl)-acetyl]-7-oxo-2,6-diazabicyclo[3.2.0]heptane-6-sulphonic acid sodium salt] the same measures were 4 µg/mL and 860 nM.
For `Cc1nnc(SCC(=O)N2CC[C@@H]3[C@H]2C(=O)N3S(=O)(=O)[O-])s1.[Na+]` [5(m), (1S,5R)-2-[[(5-Methyl-1,3,4-thiadiazol-2-yl)thio]acetyl]-7-oxo-2,6-diazabicyclo[3.2.0]heptane-6-sulphonic acid sodium salt] the same measures were 0.5 µg/mL and 24 nM.
In the case of `O=C(COc1ccc(O)nn1)N1CC[C@@H]2[C@H]1C(=O)N2S(=O)(=O)[O-].[Na+]` [5(p), (1S,5R)-2-[(6-Hydroxy-pyridazin-3-yloxy)-acetyl]-7-oxo-2,6-diazabicyclo[3.2.0]heptane-6-sulfonic acid sodium salt], the “MIC” value in experiment [1] turned out to be 1 µg/mL. Moreover, the IC50 in experiment [2] (setting [3]) came out at 178 nM.
As to `O=C(CSc1nnnn1-c1ccccc1)N1CC[C@@H]2[C@H]1C(=O)N2S(=O)(=O)O` [5(q), (1S,5R)-7-Oxo-2-[(1-phenyl-tetrazol)-5-ylsulfanyl-acetyl]-2,6-diazabicyclo[3.2.0]heptane-6-sulfonic acid sodium salt], in experiment [1], the “MIC” value was found to be 2 µg/mL. Also, the IC50 in experiment [2] was found to be 5 nM.
On the same counts, the results for `N[C@@H](C(=O)N1CC[C@@H]2[C@H]1C(=O)N2S(=O)(=O)O)c1ccc(O)cc1` [6(d), (1S,5R)-2-[D-2-(p-Hydroxyphenyl)glycyl]-7-oxo-2,6-diazabicyclo[3.2.0]-heptane-6-sulphonic acid] are 2 µg/mL and 500 nM.
On to `CCN(CC)CC.O=C(/C=C/c1c[nH]c2ccccc12)N1CC[C@@H]2[C@H]1C(=O)N2S(=O)(=O)O` [6(f), (1S,5R)-2-[(E)-3-(3-Indolyl)acryloyl]-7-oxo-2,6-diazabicyclo[3.2.0]heptane-6-sulphonic acid triethylamine salt (1:1)], for which the minimal inhibitory concentration (MIC) in experiment [1] was 4 µg/mL. Moreover, the IC50 in experiment [2] (setting [4]) is 11 nM.
As for `N[C@@H](Cc1c[nH]c2ccccc12)C(=O)N1CC[C@@H]2[C@H]1C(=O)N2S(=O)(=O)O` [6(h), (1S,5R)-7-Oxo-2-L-tryptophanyl-2,6-diazabicyclo[3.2.0]heptane-6-sulphonic acid], the “MIC” value in experiment [1] was found to be 1 µg/mL. Besides, the IC50 in experiment [2] was 6 nM.
Turning to `O=C(Cc1cccnc1)N1CC[C@@H]2[C@H]1C(=O)N2S(=O)(=O)[O-].[Na+]` [6(i), (1S,5R)-7-Oxo-2-(3-pyridylacetyl)-2,6-diazabicyclo[3.2.0]-heptane-6-sulphonic acid sodium salt], in experiment [1], the “MIC” value was determined as 4 µg/mL. The same compound registered an IC50 in experiment [2] (setting [3]) of 700 nM.
As for `N[C@@H](C(=O)N1CC[C@@H]2[C@H]1C(=O)N2S(=O)(=O)O)c1cccc(O)c1` [6(p), (1S,5R)-2-[R-2-(m-Hydroxyphenyl)glycyl]-7-oxo-2,6-diazabicyclo[3.2.0]heptane-6-sulphonic acid], the minimal inhibitory concentration (MIC) in experiment [1] was determined as 2 µg/mL. This compound registered an IC50 in experiment [2] of 56 nM.
For `O=C(/C=C/c1ccc(O)c(O)c1)N1CC[C@@H]2[C@H]1C(=O)N2S(=O)(=O)O` [6(u), (1S,5R)-(E)-2-[3-(3,4Dihydroxy)phenyl)acryloyl)]-7-oxo-2,6-diazabicyclo[3.2.0]heptane-6-sulfonic acid sodium salt] the same measures were 2 µg/mL and 40 nM.
Turning to `O=C(CNc1ccc(O)cc1)N1CC[C@@H]2[C@H]1C(=O)N2S(=O)(=O)[O-].[Na+]` [6(v), (1S,5R)-2-(4-Hydroxy-phenylaminoacetyl)-7-oxo-2,6-diazabicyclo[3.2.0]heptane-6-sulfonic acid sodium salt], the “MIC” value in experiment [1] was found to be 8 µg/mL. This compound yielded an IC50 in experiment [2] (setting [3]) of 3.5 nM.
Consider `O=C(/C=C/c1cccs1)N1CC[C@@H]2[C@H]1C(=O)N2S(=O)(=O)O` [8(a), (1S,5R)-2-[(E)-3-(2-Thienyl)acryloyl]-7-oxo-2,6-diaza-bicyclo[3.2.0]heptane-6-sulphonic acid], for which the “MIC” value in experiment [1] was 4 µg/mL. Moreover, in experiment [2], the IC50 stood at 75 nM.
On to `O=C(Cn1cnnn1)N1CC[C@@H]2[C@H]1C(=O)N2S(=O)(=O)[O-].[Na+]` [8(b), (1S,5R)-7-Oxo-2-(1H-tetrazol-1-ylacetyl)-2,6-diazabicyclo[3.2.0]heptane-6-sulphonic acid sodium salt], for which the “MIC” value in experiment [1] worked out at 1 µg/mL. Moreover, in experiment [2] (setting [3]), the IC50 was 500 nM.
`O=C(/C=C/c1c[nH]cn1)N1CC[C@@H]2[C@H]1C(=O)N2S(=O)(=O)[O-].[Na+]` [8(d), (1S,5R)-2-[(E)-3-(4-Imidazolyl)acryloyl]-7-oxo-2,6-diazabicyclo[3.2.0]heptane-6-sulphonic acid sodium salt]: the “MIC” value in experiment [1] stood at 0.5 µg/mL. Moreover, in experiment [2] (setting [3]), the IC50 came out at 34 nM.
Regarding `O=C(CCc1ccccc1)N1CC[C@@H]2[C@H]1C(=O)N2S(=O)(=O)[O-].[Na+]` [11(b), (1S,5R)-7-Oxo-2-(3-phenyl-propionyl)-2,6-diazabicyclo[3.2.0]heptane-6-sulphonic acid sodium salt], in experiment [1], the “MIC” value is 16 µg/mL. Also, the IC50 in experiment [2] (setting [3]) stood at 573 nM.
For `O=C(/C=C/c1ccc(OS(=O)(=O)[O-])c(OS(=O)(=O)[O-])c1)N1CC[C@@H]2[C@H]1C(=O)N2S(=O)(=O)[O-].[Na+].[Na+].[Na+]` [11(c), (1S,5R)-2-[(E)-3,4-Bis(sulphoxy)cinnamoyl]-7-oxo-2,6-diazabicyclo[3.2.0]heptane-6-sulphonic acid sodium salt] the same measures were 16 µg/mL and 1 nM.
On the same counts, the results for `O=C1[C@@H]2[C@@H](CCN2S(=O)(=O)Cc2ccccc2)N1S(=O)(=O)[O-].[Na+]` [11(d), (1S,5R)-2-(Benzylsulphonyl)-7-oxo-2,6-diazabicyclo [3.2.0]heptane-6-sulphonic acid sodium salt] are 4 µg/mL and 142 nM.
As to `Nc1ccc(/C=C/C(=O)N2CC[C@@H]3[C@H]2C(=O)N3S(=O)(=O)O)cc1` [12(a), (1S,5R)-2-[(E)-p-Aminocinnamoyl]-7-oxo-2,6-diazabicyclo[3.2.0]heptane-6-sulphonic acid], in experiment [1], the “MIC” value is 4 µg/mL. Further, the IC50 in experiment [2] was found to be 105 nM.
In the case of `O=C(CSc1nc[nH]n1)N1CC[C@@H]2[C@H]1C(=O)N2S(=O)(=O)O` [12(b), (1S,5R)-7-Oxo-2-(1,2,4-triazol-3-yl-thioacetyl)-2,6-diazabicyclo[3.2.0]heptan-6-sulphonic acid], in experiment [1], the “MIC” value came out at 2 µg/mL. In experiment [2] (setting [4]), the IC50 amounted to 115 nM.

(Values after US6566355B1 (Hoffmann-La Roche Inc., priority 1991, dated 2003).)
